Reference: patent publication US11903386B2, “Strigolactone analogs and their usage in plant control” (King Abdullah University of Science and Technology, priority 2016, dated 2024)
Entries after “also recorded” stand apart in the source; their conditions may differ.

Assays:
P. ramosa seeds = test: P. ramosa seed germination bioassay; assay type: in vivo; settings: 1.0 μM
Description: Parasitic weed seeds (S. hermonthica and P. ramosa) germination activity was recorded as described previously (Jamil et al., 2012). Six pre-conditioned seed discs were placed in a 90 mm petri-dish containing a filter paper ring wetted with 0.9 ml sterile MilliQ water. […] GR24 solutions with equal concentrations and sterile MilliQ water were included as a positive and negative control, respectively. After application, seeds were incubated at 30° C./25° C. in the dark for two days. Germination (seeds with radical emerging through seed coat) was scored under a binocular microscope, and germination rate (%) was calculated.

Striga = test: Trial in Burkina Faso, wooden boxes with artificially infested soil and pearl millet host; assay type: in vivo; settings: 1×1 m^2 boxes, artificially infested soil, pearl millet host
Description: Very recently, the activity of MP1 was also evaluated in a trial conducted in Burkina Faso, in which 1×1 m^2 wooden boxes were used which were filled with artificially infested soil and pearl millet as a host.

rice leaf segments = test: Dark-induced leaf senescence of rice leaf segments; assay type: in vivo, O. sativa, var. Shiokari
Description: One week old rice (O. sativa, var. Shiokari) seedlings were established as mentioned above. Uniform seedlings were transferred to 50 ml tubes containing half strength Hoaglands nutrient solution for 7 days and grown in an incubator under white fluorescent light (130-180 μM m^−2 s^−1) with 16 h:8 h (L/D) at 28° C. for one week. Leaf segments of 2 cm were cut from middle part of third leaves of rice plants. Each segment was put in a well (in 24-well plates) containing 2 ml of 2.5 mM MES buffer with 0.05% Tween-20, and incubated at 30° C. in the dark for 7 days. After application of MPs, color change, chlorophyll content, ion leakage and gene expression were monitored daily for 7 days.

Arabidopsis seedlings = test: Arabidopsis hypocotyl elongation assay; assay type: in vivo; settings: 1.0 μM
Description: Sterilized Arabidopsis seeds were sown on half strength MS (with 0.5% sucrose+1% agar, 0.5 g L-1 MES, pH 5.7) plates supplemented with MPs or GR24 (at 1.0 μM). Plates were stored at 4° C. in darkness for 3 days. To initiate germination, plates were exposed to continuous white light for 24 h then transferred to continuous monochromatic red light (160 Lux, 22° C.) conditions for another 4 days. For hypocotyl length measurement, at least 30 seedlings were measured using the publically available ImageJ software (http://rsbweb.nih.gov/ij/) after taking digital photographs. Monochromatic red light source was applied as described previously (Wu and Yang, 2010). Light flow rates were measured using a Li250 quantum photometer (Li-Cor, Lincoln, NE, USA).

COC(=O)/C(=C/OC1C=C(C)C(=O)O1)c1ccc([N+](=O)[O-])cc1 (racemic) [MP1, (E)-methyl 3-(4-methyl-5-oxo-2,5-dihydrofuran-2-yloxy)-2-(4-nitrophenyl)acrylate]
P. ramosa seed germination activity (P. ramosa seeds): much higher activity; also recorded: quite similar to that of GR24
Germination activity compared with GR24 (Striga): significantly higher germination activity than GR24

COC(=O)/C(=C/OC1C=C(C)C(=O)O1)c1ccccc1 (racemic) [MP3, (E)-methyl 3-(4-methyl-5-oxo-2,5-dihydrofuran-2-yloxy)-2-phenylacrylate]
Transcript levels of Senescence Associated Genes Osl20 and Osl295 (rice leaf segments; after 5 days of treatment): more pronounced in MP3 treated samples
Change in leaf color, time relative to control (rice leaf segments; dark, leaf segments): about two days earlier than the control
Change in leaf color, day observed (rice leaf segments; dark, leaf segments monitored 7 days): already on the third day after treatment
Ion leakage compared to the control (rice leaf segments; first five days): did not detect a difference
Ion leakage compared to the control (rice leaf segments; sixth and seventh day): striking increase
Chlorophyll content (rice leaf segments; third day): clear reduction

COC(=O)/C(=C/OC1C=C(C)C(=O)O1)c1ccc(Cl)cc1 (stereo not drawn) [MP7]
Inhibition of hypocotyl growth (Arabidopsis seedlings): stronger inhibitory effect than GR24
